According to patent publication US20100221341A1, “Alanine-Based Peptide Hydrogels” (Drexel University, priority 2009, published 2010):
Ends that are not written are not given here.

Assays:
Assay type in all cases: physicochemical
[1] = Rheology (viscosity) of peptide solutions with NaCl
Method: Rheology measurements were made for solutions of (AAKA)4 (concentration of 5 mg/mL or 3.5 mM) in 0.5 M and 1.0 M NaCl, as shown in FIG. 16. […] The shear-thinning behavior observed in these experiments was consistent with other oligopeptides hydrogels (Schneider, […], J. Am. Chem. Soc. 124:15030).
Another rheology experiment is illustrated in FIG. 17, for a solution of (AAKA)4 (concentration of 5 mg/mL) in 0.0 M, 1.0 M and 2.0 M NaCl. FIG. 17 illustrates three experimental curves for each concentration of NaCl.
Yet another rheology experiment is illustrated in FIG. 18, for a 5 mg/mL and a 10 mg/mL solution of (AAKA)4 in 1 M NaCl. FIG. 18 illustrates three experimental curves for each value of concentration of peptide.
As illustrated above, (AAKA)4 was conformationally unstable upon dissolution in water, prior to the addition of salt and consequent hydrogel formation. […] This is illustrated in FIG. 19, where the viscosity of a 5 mg/mL (AAKA)4 solution comprising 2 M NaCl was compared with the viscosity of a similar peptide solution wherein NaCl was added after ˜24 hours.

Hydrogel formation = assay: Hydrogel formation
Method: For the FT-IR (Fourier transform infrared), CD (circular dichroism), and Raman measurements of Ac-(AAKA)4-NH2, unless otherwise described, the peptide was dissolved in acidic D2O (pD=1.4) at a concentration of ˜15 mg/mL (˜10.5 mM), where the D2O was made acidic by the addition of DCl (Sigma-Aldrich). […] The measurements for the gelated state of the 12-mer, Ac-(AAKA)3-NH2, were carried out similarly, at a concentration of ˜27 mg/mL in D2O (pD=1.4). For the ECD measurements, Ac-(AAKA)3-NH2 and (AAKA)4 were dissolved in acidic D2O at concentrations of 2.4 mg/mL and 1 mg/mL, respectively, and the samples were measured at room temperature.
NaCl was added to a freshly aqueous solution of (AAKA)4, wherein the concentration of peptide was equal to or higher than 0.5 wt %. […] An example of such hydrogel is illustrated in FIG. 15.

[2] = UV-CD kinetics after dissolution in D2O, read at 198 nm and 215 nm
Method: (§1) The Raman spectra were obtained with the 442 nm (40 mW) excitation from a HeCd laser (Model IK 4601R-E, Kommon Electrics, USA) and recorded with a RM 100 Remishaw confocal microscope. The UV ECD spectra in the wavelength range of 180-250 nm of peptides were measured with a JASCO J-810 spectrapolarimeter in a 0.1 mm quartz cell with 0.05 nm resolution. Samples were placed in a nitrogen purged JASCO CD module. The temperature at the cuvette was controlled by means of a Peltier-type heating system (accuracy ±1° C.) set to 20° C. The spectra were obtained by averaging ten scans and were collected as ellipticity as a function of wavelength, and converted to units of molar absorptivities via the equation: […]
The UV-CD spectra of Ac-(AAKA)4-NH2 was acquired at various times after dissolution in deuterated water (D2O). The results are illustrated in FIG. 4. Initially a significant percentage of β-structure was observed, and in a time-dependent manner more flexible PPII-like conformations were observed.
The UV-CD kinetics of Ac-(AAKA)4-NH2, in terms of the readings at 198 nm and 215 nm as a function of time, were monitored. The results are illustrated in FIG. 5. The plots were fit to bi-exponential functions, reflecting a fast phase (˜18 minutes) and a slow phase (>300 minutes). The fast phase may reflect the kinetics of hydration/dissolution of the peptide. […]

[3] = Temperature-dependent UV-CD spectra; conditions: 3.5 mM in D2O, pH 2.7; intersection of two fitted straight lines
Method: as §1
The temperature-dependent UV-CD spectra of 3.5 mM Ac-(AAKA)4-NH2 measured at acid pH is illustrated in FIG. 8. […] The inset of FIG. 8 illustrates the change of the Δε measured at 214.5 nm as a function of temperature, reflecting the decrease of the β-sheet content with increasing temperature.
Two different modes were found in the relationship between the n-sheet content and temperature. The β-sheet content, as evaluated by Δε, […] linearly with temperatures below 300 K and remained almost constant after 350 K. The transition temperature between these two modes was around 320 K, as is defined by the intersection between the two straight lines, fitting the initial and final behaviors.

| Substance | viscosity as a function of peptide and NaCl concentration ([1]; 5 mg/mL (3.5 mM) in 0.5 M and 1.0 M NaCl) | viscosity of hydrogel when salt is added with delay ([1]; 5 mg/mL, 2 M NaCl added after ~24 hours, versus NaCl added at time zero) | hydrogel formation on addition of NaCl (Hydrogel formation; 1-year-old sample, 5 mg/mL (3.5 mM)) | hydrogel formation on addition of NaCl (Hydrogel formation; fresh aqueous solution, peptide equal to or higher than 0.5 wt %, final NaCl higher than 1.0 M) | hydrogel formation after dissolution (Hydrogel formation; ~15 mg/mL (~10.5 mM) in acidic D2O, pD 1.4) | fast phase of UV-CD kinetics (bi-exponential fit) [2] [min] | slow phase of UV-CD kinetics (bi-exponential fit) [2] [min] | transition temperature of β-sheet content (Δε at 214.5 nm) [3] |
| --- | --- | --- | --- | --- | --- | --- | --- | --- |
| AAKAAAKAAAKAAAKA [(AAKA)4] | more viscous gels | much less viscous and rigid hydrogel | did not result in hydrogel formation | rigid self-supporting hydrogel | – | – | – | – |
| Ac-AAKAAAKAAAKAAAKA-NH2 [Ac-(AAKA)4-NH2] | – | – | – | – | formed a hydrogel shortly after dissolution | ~18 | > 300 | around 320 K |
